Assay results as given in US20140128352A1, “COMPOUNDS AND METHODS FOR MODULATING MITOCHONDRIAL METABOLISM AND REACTIVE OXYGEN SPECIES PRODUCTION” (Buck Institute for Research on Aging, priority 2012, published 2014).
Read-outs that look alike come from different tables or passages of the source.

Key:
[1] = biological target: T1, flavin binding site of complex I (IF) (Rattus norvegicus, UniProt Q5XIH3); assay: High-throughput screen: ROS production from flavin binding site of complex I (IF); type: biochemical
T1 construct: freshly isolated muscle mitochondria were assayed; from tissue; host or cells: rat skeletal muscle mitochondria (Wistar, Harlan Laboratories)

[2] = system: ubiquinone binding site of complex I (IQ); assay: High-throughput screen: ROS production from ubiquinone binding site of complex I (IQ), isolated skeletal muscle mitochondria; type: biochemical, rat; conditions: for IQ: percent change in ROS from DMSO controls; for % Reduction in ROS production (IQ): Table 2, 5 mM succinate, compounds 2.5 μM, percent change from DMSO, positive control −100%
Experimental: (§1) Skeletal muscle mitochondria were isolated from 5-8 week old female Wistar rats (Harlan Laboratories). Minced muscle was homogenized in buffer containing bacterial protease Type VIII prior to differential centrifugation to separate mitochondria from other tissue components. Unless otherwise stated, freshly isolated muscle mitochondria were assayed in buffer containing 120 mM KCl, 5 mM HEPES, 1 mM EGTA, 0.3% (w/v) bovine serum albumin. Where indicated, CaCl2 was added to yield a final free concentration of 250 nM calcium at pH 7.0 at 37° C.
(§2) Compounds (10 mM in DMSO) were randomly selected from a library of 24,000 compounds obtained from ChemBridge and curated by the lab of Robert Hughes at the Buck Institute. Master screening plates were prepared using a Biomek FX liquid handling workstation (Beckman) to transfer 1 μL of each compound into individual wells on 96-well storage plates (80 compounds per plate). Master plates were sealed with foil and stored at −80° C. Just prior to use, plates were brought to room temperature and diluted 300-fold with standard buffer (13.3X=33.3 μM). To monitor the performance of each assay throughout screening and to provide intra-plate normalization reference points, DMSO negative controls and known mitochondrial inhibitor positive controls were included on each Master compound plate.
(§3) Total amounts of superoxide and H2O2 production were determined fluorometrically as H2O2, without distinguishing between them, in the presence of exogenous superoxide dismutase (25 units/mL final), horseradish peroxidase (1 unit/mL final), and Amplex UltraRed (25 μM final) as described (Affourtit, C. et al. (2012) Measurement of proton leak and electron leak in isolated mitochondria. Methods Mol. Biol. 810: 165-82). Just prior to use, a bulk 3.3X solution was made in standard buffer and distributed into a 2 mL deep well 96-well transfer plate.
To assess the effects of a compound on ROS production from the ubiquinone binding site of complex I (IQ), Start Solution containing 5 mM succinate was distributed into standard 96-well transfer plates. A Biomek FX workstation was programmed to dispense solutions into black 96-well assay plates. Solutions were dispensed to all assay plates in the following order: ROS Detection solution described in Example 3, Mitochondria solution described in Example 1 to a final concentration of 0.1 mg/ml, and Compound dilutions described in Example 2. Duplicate assay plates were made and each was initiated by the addition of 3.3X Start solution containing 5 mM succinate. Plates were incubated in the dark at room temperature for 30-40 minutes before acquiring endpoint fluorescence using a Victor 3V plate reader (Perkin Elmer) equipped with 550/590 nm excitation/emission filters.
The fluorescence values in each well were scaled as the percent change from the intra-plate DMSO controls with the appropriate inhibitor positive controls defined as −100%. Following initial scaling, intra-plate normalized values were subjected to Tukey's two-way median polish to remove row and column dependent positional effects (Malo et al, 2006).

[3] = biological target: T2, succinate dehydrogenase/complex II (SDH) (Rattus norvegicus, UniProt P21913+Q641Z9+Q6PCT8+Q920L2); assay: High-throughput screen: ROS production from succinate dehydrogenase/complex II (SDH); type: biochemical; conditions: for inhibition at 2.5 µM / SDH: percent change in ROS from DMSO controls; for % Reduction in ROS Production (SDH): Table 5, 15 μM palmitoyl carnitine, 2.5 μM antimycin A, 2 μM myxothiazol, compounds 2.5 μM, percent change from DMSO
T2 construct: freshly isolated muscle mitochondria were assayed; from tissue; host or cells: rat skeletal muscle mitochondria (Wistar, Harlan Laboratories)
Experimental: as §1
Just prior to use, plates were brought to room temperature and diluted 300-fold with standard buffer (13.3X=33.3 μM). To monitor the performance of each assay throughout screening and to provide intra-plate normalization reference points, DMSO negative controls and known mitochondrial inhibitor positive controls were included on each Master compound plate.
as §3
To assess the effects of a compound on ROS production from succinate dehydrogenase/complex II (SDH), Start Solution containing 15 μM palmitoyl carnitine, 2.5 μM antimycin A and 2 μM myxothiazol was distributed into standard 96-well transfer plates. A Biomek FX workstation was programmed to dispense solutions into black 96-well assay plates. Solutions were dispensed to all assay plates in the following order: ROS Detection solution described in Example 3, Mitochondria solution described in Example 1 to a final concentration of 0.3 mg/ml, and Compound dilutions described in Example 2. Duplicate assay plates were made and each was initiated by the addition of 3.3X Start solution containing 15 μM palmitoyl carnitine, 2.5 μM antimycin A and 2 μM myxothiazol. Plates were incubated in the dark at room temperature for 30-40 minutes before acquiring endpoint fluorescence using a Victor 3V plate reader (Perkin Elmer) equipped with 550/590 nm excitation/emission filters.
The fluorescence values in each well were scaled as the percent change from the intra-plate DMSO controls with the appropriate inhibitor positive controls defined as −100%. Following initial scaling, intra-plate normalized values were subjected to Tukey's two-way median polish to remove row and column dependent positional effects (Malo et al., 2006).

[4] = biological target: T3, glycerol-3-phosphate dehydrogenase (GPDH) (Rattus norvegicus, UniProt P35571); assay: High-throughput screen: ROS production from glycerol-3-phosphate dehydrogenase (GPDH); type: biochemical; set-up: inhibition: dose or concentration left out as unconfirmed; conditions: percent change in ROS from DMSO controls
T3 construct: The activity of GPDH in intact mitochondria (0.3 mg/mL) was measured; from tissue; host or cells: rat skeletal muscle mitochondria (Wistar, Harlan Laboratories)
T3 sequence (P35571 43-727): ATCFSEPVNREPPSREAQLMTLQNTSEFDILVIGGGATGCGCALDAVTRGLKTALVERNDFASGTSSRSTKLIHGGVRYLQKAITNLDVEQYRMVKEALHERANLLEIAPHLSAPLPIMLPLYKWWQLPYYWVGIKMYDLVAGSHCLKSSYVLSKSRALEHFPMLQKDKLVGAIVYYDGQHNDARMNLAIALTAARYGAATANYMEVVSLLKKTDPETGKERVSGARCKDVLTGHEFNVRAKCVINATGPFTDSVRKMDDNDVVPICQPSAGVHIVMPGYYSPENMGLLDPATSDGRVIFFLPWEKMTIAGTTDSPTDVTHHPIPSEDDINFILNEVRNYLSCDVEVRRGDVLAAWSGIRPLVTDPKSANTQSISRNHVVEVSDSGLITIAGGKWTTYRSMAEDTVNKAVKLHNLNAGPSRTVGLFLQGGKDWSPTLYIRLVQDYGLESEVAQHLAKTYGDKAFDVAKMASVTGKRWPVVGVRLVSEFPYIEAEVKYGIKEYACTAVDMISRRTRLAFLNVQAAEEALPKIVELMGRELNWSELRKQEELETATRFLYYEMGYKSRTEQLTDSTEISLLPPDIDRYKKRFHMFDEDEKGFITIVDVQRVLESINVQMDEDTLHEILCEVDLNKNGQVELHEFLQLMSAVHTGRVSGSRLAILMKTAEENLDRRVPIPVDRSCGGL
Experimental: as §1, §2, §3
To assess the effects of a compound on ROS production from glycerol-3-phosphate dehydrogenase (GPDH), Start Solution containing 25 mM glycerol phosphate, 4 μM rotenone, 2.5 μM antimycin A, 1 mM malonate, 2 μM myxothiazol was distributed into standard 96-well transfer plates. A Biomek FX workstation was programmed to dispense solutions into black 96-well assay plates. Solutions were dispensed to all assay plates in the following order: ROS Detection solution described in Example 3, Mitochondria solution described in Example 1 to a final concentration of 0.2 mg/ml, and Compound dilutions described in Example 2. Duplicate assay plates were made and each was initiated by the addition of 3.3X Start solution containing 25 mM glycerol phosphate, 4 μM rotenone, 2.5 μM antimycin A, 1 mM malonate, 2 μM myxothiazol. Plates were incubated in the dark at room temperature for 30-40 minutes before acquiring endpoint fluorescence using a Victor 3V plate reader (Perkin Elmer) equipped with 550/590 nm excitation/emission filters.
The fluorescence values in each well were scaled as the percent change from the intra-plate DMSO controls. […] Following initial scaling, intra-plate normalized values were subjected to Tukey's two-way median polish to remove row and column dependent positional effects (Malo et al., 2006).

[5] = system: mitochondrial membrane potential (ΔΨm); assay: Membrane potential (ΔΨm) counterscreen with TMRM; conditions: malate, nigericin
[6] = biological target: T4, outer ubiquinone binding site of complex III (IIIQO) (Rattus norvegicus, UniProt P00159+P20788); assay: High-throughput screen: ROS production from outer ubiquinone binding site of complex III (IIIQO); type: biochemical; conditions: percent change in ROS from DMSO controls
T4 construct: freshly isolated muscle mitochondria were assayed; from tissue; host or cells: rat skeletal muscle mitochondria (Wistar, Harlan Laboratories)

[7] = Table 3, 5 mM glutamate, 5 mM malate, 4 μM rotenone, compounds 2.5 μM, percent change from DMSO, positive control −100%, read-out: % Reduction in ROS production (IF)
[8] = Table 7, percent change in ROS from DMSO controls, read-out: IF
[9] = Table 8, percent change in ROS from DMSO controls
[10] = Table 9, percent change in ROS from DMSO controls

T1 sequence (Q5XIH3 21-464 limits assumed, one chain of several): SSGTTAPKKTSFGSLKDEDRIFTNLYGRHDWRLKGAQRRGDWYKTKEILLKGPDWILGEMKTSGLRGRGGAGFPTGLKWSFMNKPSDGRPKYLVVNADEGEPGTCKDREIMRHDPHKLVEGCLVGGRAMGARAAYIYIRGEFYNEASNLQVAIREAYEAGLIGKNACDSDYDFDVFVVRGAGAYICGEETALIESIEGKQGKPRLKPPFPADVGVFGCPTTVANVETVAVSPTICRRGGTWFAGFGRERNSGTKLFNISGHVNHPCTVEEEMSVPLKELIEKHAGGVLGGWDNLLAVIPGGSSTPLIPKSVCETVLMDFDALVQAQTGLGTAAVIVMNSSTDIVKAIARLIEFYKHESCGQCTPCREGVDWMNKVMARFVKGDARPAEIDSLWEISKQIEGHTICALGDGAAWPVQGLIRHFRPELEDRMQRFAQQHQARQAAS
T2 sequence (Q920L2 35-656): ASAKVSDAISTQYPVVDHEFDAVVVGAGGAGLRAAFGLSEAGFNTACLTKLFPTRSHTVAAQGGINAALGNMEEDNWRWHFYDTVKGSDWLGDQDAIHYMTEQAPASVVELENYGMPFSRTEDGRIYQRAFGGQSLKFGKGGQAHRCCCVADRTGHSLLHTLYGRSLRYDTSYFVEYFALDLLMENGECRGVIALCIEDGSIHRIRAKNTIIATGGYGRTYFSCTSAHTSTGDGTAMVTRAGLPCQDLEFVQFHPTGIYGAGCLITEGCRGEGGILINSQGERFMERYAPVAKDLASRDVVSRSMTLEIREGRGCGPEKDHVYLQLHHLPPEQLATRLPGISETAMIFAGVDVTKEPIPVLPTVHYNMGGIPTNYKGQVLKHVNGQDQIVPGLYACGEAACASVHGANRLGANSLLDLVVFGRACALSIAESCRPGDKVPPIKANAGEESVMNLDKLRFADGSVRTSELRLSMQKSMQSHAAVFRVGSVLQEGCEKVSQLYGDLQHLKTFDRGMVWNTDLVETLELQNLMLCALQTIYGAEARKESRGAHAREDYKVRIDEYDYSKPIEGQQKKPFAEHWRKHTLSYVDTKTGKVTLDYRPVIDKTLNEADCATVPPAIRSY
T2 sequence (P21913 31-282): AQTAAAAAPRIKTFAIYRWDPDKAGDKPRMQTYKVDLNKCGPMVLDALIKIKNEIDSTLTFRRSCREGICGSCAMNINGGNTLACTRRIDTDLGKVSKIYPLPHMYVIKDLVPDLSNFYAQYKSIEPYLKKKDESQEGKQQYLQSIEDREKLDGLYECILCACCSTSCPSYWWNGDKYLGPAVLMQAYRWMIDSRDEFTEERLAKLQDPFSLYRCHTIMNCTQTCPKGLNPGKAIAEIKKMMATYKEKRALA
T2 sequence (Q641Z9 30-169 limits assumed): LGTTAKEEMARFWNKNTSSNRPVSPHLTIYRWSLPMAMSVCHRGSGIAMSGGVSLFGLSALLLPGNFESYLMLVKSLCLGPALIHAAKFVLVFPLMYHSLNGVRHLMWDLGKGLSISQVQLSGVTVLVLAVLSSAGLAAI
T2 sequence (Q6PCT8 57-159): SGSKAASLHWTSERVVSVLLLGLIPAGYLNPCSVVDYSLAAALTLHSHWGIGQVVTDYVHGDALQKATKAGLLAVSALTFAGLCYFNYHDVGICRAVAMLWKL

inhibition at 2.5 µM ([3]; Table 7)	SDH ([3]; Table 8)	SDH ([3]; Table 9)	inhibition ([4]; Table 7)	GPDH ([4]; Table 8)	GPDH ([4]; Table 9)	inhibition at 2.5 µM ([6]; Table 7, read-out: IIIQO)	IIIQO ([6]; Table 8)	inhibition at 2.5 µM ([6]; Table 9, read-out: IIIQo)	Compound	inhibition at 2.5 µM [1, 7]	inhibition at 2.5 µM [1, 8]	IF [1, 9]	IF [1, 10]	IQ ([2]; Table 7)	IQ ([2]; Table 8)	IQ ([2]; Table 9)	ΔΨm ([5]; Table 8, glutamate)	ΔΨm ([5]; Table 9, glutamate)	% Reduction in ROS production (IQ) [2]	further results
0.1%	−0.1	−0.1	2.5%	−2.5	−2.5	3.3%	−3.3	3.3%	CCN(CC)CCN(CC)Cc1ccc(Cl)cc1Cl [Compound 25]	19.7%	19.7%	−19.7	−19.7	−0.6	−0.6	−0.6	−0.4	−0.4	–	–
–	−35	–	–	0	–	–	−10	–	Cc1cc(OCC(O)CN(Cc2ccccc2)C(C)(C)C)ccc1[N+](=O)[O-] (stereo not shown) [Compound 82]	–	–	−34	–	–	−2	–	0	–	–	% Reduction in ROS production (IF) ([1]; Table 3, 5 mM glutamate, 5 mM malate, 4 μM rotenone, compounds 2.5 μM, percent change from DMSO, positive control −100%): −34%; % Reduction in ROS Production (SDH) [3]: −35%
-4.2%	4.2	4.2	0.6%	−0.6	−0.6	-6.6%	6.6	-6.6%	COc1ccccc1/C=C/c1nc(O)nc(O)c1[N+](=O)[O-] [Compound 16]	26.7%	26.7%	−26.7	−26.7	−5.4	−5.4	−5.4	−0.3	−0.3	–	–
-1.3%	1.3	1.3	2.3%	−2.3	−2.3	2.5%	−2.5	2.5%	O=C(Nc1ccc(Br)cc1)[C@@H]1C2C=CC(C2)[C@@H]1C(=O)O (stereo partly shown) [Compound 28]	19.1%	19.1%	−19.1	−19.1	0.2	0.2	0.2	−1.3	−1.3	–	–
-1.7%	1.7	1.7	1%	−1.0	−1.0	8.8%	−8.8	8.8%	CN(C)CCN(Cc1ccccc1)Cc1ccccc1Br [Compound 23]	21.1%	21.1%	−21.1	−21.1	−2.7	−2.7	−2.7	−1.5	−1.5	–	–
–	0.7	0.7	–	−0.2	−0.2	–	0.8	–	O=[N+]([O-])c1ccc(Oc2ccc(S(=O)(=O)Nc3ccc(F)cc3)cc2)cc1 [Compound 84]	–	–	−1.4	−1.4	−47.7	−47.7	−47.7	−1.5	−1.5	−47.7%	IF ([1]; Table 7, percent change in ROS from DMSO controls): −1.4; SDH ([3]; Table 7): 0.7; GPDH ([4]; Table 7): −0.2; IIIQO ([6]; Table 7): 0.8; IIIQO ([6]; Table 9): 0.8
-0.8%	0.8	0.8	0.4%	−0.4	−0.4	0.1%	−0.1	0.1%	Cc1ccc(S(=O)(=O)Nc2nnc(C)s2)cc1 [Compound 27]	19.6%	19.6%	−19.6	−19.6	0.0	0.0	0.0	1.6	1.6	–	–

More lines, now with the values behind:

Compound	inhibition at 2.5 µM ([3]; Table 7)	SDH ([3]; Table 8)	SDH ([3]; Table 9)	inhibition ([4]; Table 7)	GPDH ([4]; Table 8)	GPDH ([4]; Table 9)	inhibition at 2.5 µM ([6]; Table 7, read-out: IIIQO)	IIIQO ([6]; Table 8)	inhibition at 2.5 µM ([6]; Table 9, read-out: IIIQo)	inhibition at 2.5 µM [1, 7]	inhibition at 2.5 µM [1, 8]	IF [1, 9]	IF [1, 10]	IQ ([2]; Table 7)	IQ ([2]; Table 8)	IQ ([2]; Table 9)	ΔΨm ([5]; Table 8, glutamate)	ΔΨm ([5]; Table 9, glutamate)	% Reduction in ROS production (IQ) [2]	further results
O=C(Nc1nn[nH]n1)C1CCCCC1 [Compound 76]	–	–	–	–	–	–	–	–	–	34%	–	–	–	–	−24	–	0	–	−24%	inhibition at 2.5 µM ([1]; Table 8, percent change in ROS from DMSO controls, read-out: IF): 34%; inhibition at 2.5 µM ([3]; Table 8): -3%; inhibition ([4]; Table 8): 0%; inhibition at 2.5 µM ([6]; Table 8, read-out: IIIQO): 0%
CC(C)(C)C1=NN(c2c(Cl)cc(Cl)cc2Cl)C(=O)C1 [Compound 3]	6.8%	−6.8	−6.8	0.1%	−0.1	−0.1	-1%	1.0	-1%	–	-0.5%	0.5	0.5	−52.4	−52.4	−52.4	1.2	1.2	−52.4%	–
COc1ccc(C2C(C#N)=C(N)Oc3c2c(=O)oc2ccccc32)cc1O (stereo not shown) [Compound 74]	20.9%	−20.9	−20.9	3.5%	−3.5	−3.5	7.6%	−7.6	7.6%	–	-0.4%	0.4	0.4	−0.7	−0.7	−0.7	0.8	0.8	–	% Reduction in ROS Production (SDH) [3]: −20.9%
CCSC1=C(C#N)C2(CCCC2)C(C#N)C(=O)N1 (stereo not shown) [Compound 2]	-2.6%	2.6	2.6	0.1%	−0.1	−0.1	-1.9%	1.9	-1.9%	–	7%	−7.0	−7.0	−52.5	−52.5	−52.5	−3.4	−3.4	−52.5%	–
Cc1ccccc1NS(=O)(=O)c1ccc(-c2ccc(S(=O)(=O)Nc3ccccc3C)cc2)cc1 [Compound 12]	0.1%	−0.1	−0.1	-0.5%	0.5	0.5	-0.2%	0.2	-0.2%	–	1.7%	−1.7	−1.7	−20.7	−20.7	−20.7	−0.5	−0.5	−20.7%	–
C=CCSc1nc(N)c(C#N)c(CC)c1C#N [Compound 7]	-2.1%	2.1	2.1	-5.6%	5.6	5.6	-9.2%	9.2	-9.2%	–	-1.3%	1.3	1.3	−36.5	−36.5	−36.5	−0.5	−0.5	−36.5%	–
